From patent US20240141020A1, “METHOD FOR MODULATING AFUCOSLYATION OF AN ANTIBODY PRODUCT” (LONZA BEND INC., priority 2021, published 2024)

Test system: CHO GS-KO cells
Test: Modulation of afucosylation of a model IgG antibody produced by CHO GS-KO cells in supplemented culture medium (shake flasks, 5 days, LC-MS glycan profile)
Format: cell-based, Chinese hamster
Conditions: for Average % Afucosylation: mAb harvested day 5, G0/(G0F+G0), n = 3 technical replicates, control 5.21%
Experimental: CHO GS-KO cells were cultured in chemically defined culture medium supplemented with different chemicals at different concentrations to test the impact of those chemicals on the N-linked glycan profile of the product produced by the cultures. The product produced by this cell line was a model IgG antibody. • 1. Prepare culture media with supplemented chemicals • 2. Culture cells in media from (1) • 3. Harvest mAb produced in cultures and measure glycan profile of purified, reduced, and de-salted mAb products • 4. Determine statistical impact of chemical supplements on glycan product quality The chemicals that were supplemented to the medium included: • None (Control) • Mannose • N-Acetylmannosamine (ManNAc)+Galactose Concentrated stock solutions of mannose, ManNAc, and galactose were prepared and added into culture media. Specific volumes of the stock solution was supplemented to the culture media to generate the conditions in Table 1: GS-KO cells were inoculated at a density of 2×10^5 cells/mL into vented shake flasks containing medium from Table 1. Cultures were grown for five days in a temperature, CO2, and humidity-controlled incubator. Daily samples were taken to monitor the culture health. mAb product was harvested from day 5 shake flask cultures and purified through Protein A capture. Purified mAb was prepared for glycan analysis by reducing mAb to separate heavy and light chains. Reduced mAb was injected onto an LC-MS where the reduced mAb was de-salted by passing through a reverse-phase de-salting column on the LC prior to injection into a time of flight mass spectrometer (TOF MS) (Agilent 6230B). Three injections per sample was performed for technical replicates. Protein Metrics Software was used to process the resulting LC-MS data and the relative abundance of each glycan species was reported. The glycan species measured in processing included: G0, G0F, G1F, G2F, G1F+NeuAc, […]+NeuAc, […]+2NeuAc. Percent afucosulated mAb was calculated by dividing the total amount of afucosylated species by the sum of afucosylate and fucosylated species (G0/[…]+G0).

SMILES | afucosylation compared to control (in words) (higher concentration of ManNAc (10 uM), with 1 mM galactose) | Average % Afucosylation (culture medium + 1 g/L Mannose) | Average % Afucosylation (culture medium + 3 g/L Mannose) | Average % Afucosylation (culture medium + 6 g/L Mannose) | high mannose species of the antibody product (in words) (mannose in amounts greater than about 1 g/L) | % afucosylated mAb compared to control (in words) (supplementation of culture medium with mannose, 1, 3, 6 g/L)
CC(=O)N[C@@H]1C(O)O[C@H](CO)[C@@H](O)[C@@H]1O (stereo partly drawn) [ManNAc, N-Acetylmannosamine] | decreasing afucosylation slightly |  |  |  |  | 
O=C[C@@H](O)[C@@H](O)[C@H](O)[C@H](O)CO [Mannose, mannose] |  | 5.63% | 6.10% | 7.27% | does not appear to result in an increase in high mannose species | significantly increased
